Several values for one entry are separate records, joined by “and”; a condition that tells them apart may be missing. Identical values can stand only once. Inconclusive results and toxic doses are left out.
System: L1210 leukemia ip in BDF1 mice, survival T/C
Assay: NCI In Vivo Anticancer Drug Screen. Data for tumor model L1210 Leukemia (intraperitoneal) in B6D2F1 (BDF1) mice
Conditions: endpoint: mean survival time, higher = longer survival
Procedure, shortened: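 Mice bearing the transplanted tumor received compound or vehicle. Survival of the treated group was divided by that of the vehicle-treated control group to give the ratio.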

[1] = dose: 100.0 mg/kg/injection, schedule: Q04DX002 (ip), vehicle: Klucel (hydroxypropylcellulose) (HPC)
[2] = dose: 200.0 mg/kg/injection, schedule: Q04DX002 (ip), vehicle: Klucel (hydroxypropylcellulose) (HPC)
[3] = dose: 400.0 mg/kg/injection, schedule: Q04DX002 (ip), vehicle: Klucel (hydroxypropylcellulose) (HPC)
[4] = dose: 100.0 mg/kg/injection, schedule: Q04DX003 (ip), vehicle: saline with Tween-80
[5] = dose: 200.0 mg/kg/injection, schedule: Q04DX003 (ip), vehicle: saline with Tween-80
[6] = dose: 400.0 mg/kg/injection, schedule: Q04DX003 (ip), vehicle: saline with Tween-80

## CCNC1(c2ccc(Cl)cc2)CCCCC1=O (stereo not drawn)
dose: 50.0 mg/kg/injection, schedule: Q01DX009 (ip), vehicle: saline
  T/C: 105 % of control
dose: 100.0 mg/kg/injection, schedule: Q01DX009 (ip), vehicle: saline
  T/C: 102 % of control
dose: 100.0 mg/kg/injection, schedule: Q04DX003 (ip), vehicle: saline
  T/C: 104 % of control
dose: 200.0 mg/kg/injection, schedule: Q04DX003 (ip), vehicle: saline
  T/C: 106 % of control

## Oc1ccccc1C1CCCCC1
dose: 12.5 mg/kg/injection, schedule: Q01DX009 (ip), vehicle: gum acacia
  T/C: 102 % of control
dose: 25.0 mg/kg/injection, schedule: Q01DX009 (ip), vehicle: gum acacia
  T/C: 100 % of control
dose: 50.0 mg/kg/injection, schedule: Q01DX009 (ip), vehicle: gum acacia
  T/C: 98 % of control

## CC(=O)OCC1CCC(NC(=O)N(CCF)N=O)CC1 (stereo not drawn)
dose: 9.0 mg/kg/injection, schedule: Q01DX001 (ip), vehicle: saline with Tween-80
  T/C: 106 % of control
dose: 13.0 mg/kg/injection, schedule: Q01DX001 (ip), vehicle: saline with Tween-80
  T/C: 110 % of control
dose: 20.0 mg/kg/injection, schedule: Q01DX001 (ip), vehicle: saline with Tween-80
  T/C: 100 % of control
dose: 45.0 mg/kg/injection, schedule: Q01DX001 (ip), vehicle: saline with Tween-80
  T/C: 353 % of control

## Cc1ncc(/C=N/O)n1Cc1ccccc1
dose: 100.0 mg/kg/injection, schedule: Q01DX001 (ip), vehicle: other
  T/C: 97 % of control and 90 % of control
[1]
  T/C: 98 % of control
dose: 100.0 mg/kg/injection, schedule: Q04DX002 (ip), vehicle: other
  T/C: 94 % of control and 96 % of control
dose: 100.0 mg/kg/injection, schedule: Q04DX003 (ip), vehicle: other
  T/C: 97 % of control
dose: 200.0 mg/kg/injection, schedule: Q01DX001 (ip), vehicle: other
  T/C: 94 % of control and 97 % of control
[2]
  T/C: 94 % of control
dose: 200.0 mg/kg/injection, schedule: Q04DX002 (ip), vehicle: other
  T/C: 99 % of control and 105 % of control
dose: 200.0 mg/kg/injection, schedule: Q04DX003 (ip), vehicle: other
  T/C: 97 % of control and 100 % of control
dose: 400.0 mg/kg/injection, schedule: Q01DX001 (ip), vehicle: other
  T/C: 93 % of control and 91 % of control
[3]
  T/C: 105 % of control
dose: 400.0 mg/kg/injection, schedule: Q04DX002 (ip), vehicle: other
  T/C: 99 % of control and 92 % of control
dose: 400.0 mg/kg/injection, schedule: Q04DX003 (ip), vehicle: other
  T/C: 89 % of control and 90 % of control

## CC1CC(C(=O)O)C(Cc2ccc([N+](=O)[O-])cc2)C1=O (stereo not drawn)
[1]
  T/C: 93 % of control
[2]
  T/C: 93 % of control
[3]
  T/C: 89 % of control

## N#[N+]c1ccc(Br)cc1-c1nc(N)c2cc(Br)ccc2n1
dose: 50.0 mg/kg/injection, schedule: Q01DX001 (ip), vehicle: Klucel (hydroxypropylcellulose) (HPC)
  T/C: 94 % of control
dose: 100.0 mg/kg/injection, schedule: Q01DX001 (ip), vehicle: Klucel (hydroxypropylcellulose) (HPC)
  T/C: 105 % of control
dose: 200.0 mg/kg/injection, schedule: Q01DX001 (ip), vehicle: Klucel (hydroxypropylcellulose) (HPC)
  T/C: 105 % of control

## O=[N+]([O-])c1cccc(/C=[N+](\[O-])c2ccccc2)c1
dose: 50.0 mg/kg/injection, schedule: Q01DX001 (ip), vehicle: saline
  T/C: 100 % of control
dose: 100.0 mg/kg/injection, schedule: Q01DX001 (ip), vehicle: saline
  T/C: 96 % of control
dose: 200.0 mg/kg/injection, schedule: Q01DX001 (ip), vehicle: saline
  T/C: 100 % of control
dose: 400.0 mg/kg/injection, schedule: Q01DX001 (ip), vehicle: saline
  T/C: 102 % of control

## CNC(=O)Oc1cccc(NC(=O)N(C(C)C)C(C)C)c1
[4]
  T/C: 91 % of control
[5]
  T/C: 89 % of control
[6]
  T/C: 88 % of control

## CC1C2C=CC(C2)C1C(=O)O (stereo not drawn)
dose: 100.0 mg/kg/injection, schedule: Q01DX001 (ip), vehicle: carboxymethylcellulose (CMC)
  T/C: 98 % of control
[4]
  T/C: 96 % of control and 97 % of control and 88 % of control
dose: 200.0 mg/kg/injection, schedule: Q01DX001 (ip), vehicle: carboxymethylcellulose (CMC)
  T/C: 96 % of control
[5]
  T/C: 89 % of control and 92 % of control and 91 % of control
dose: 400.0 mg/kg/injection, schedule: Q01DX001 (ip), vehicle: carboxymethylcellulose (CMC)
  T/C: 96 % of control
[6]
  T/C: 99 % of control and 97 % of control

## Cc1ccc(CCO)c(C)c1
dose: 100.0 mg/kg/injection, schedule: Q01DX009 (ip), vehicle: Klucel (hydroxypropylcellulose) (HPC)
  T/C: 92 % of control
dose: 100.0 mg/kg/injection, schedule: Q04DX003 (ip), vehicle: Klucel (hydroxypropylcellulose) (HPC)
  T/C: 92 % of control
dose: 200.0 mg/kg/injection, schedule: Q01DX009 (ip), vehicle: Klucel (hydroxypropylcellulose) (HPC)
  T/C: 94 % of control
dose: 200.0 mg/kg/injection, schedule: Q04DX003 (ip), vehicle: Klucel (hydroxypropylcellulose) (HPC)
  T/C: 92 % of control
dose: 400.0 mg/kg/injection, schedule: Q01DX009 (ip), vehicle: Klucel (hydroxypropylcellulose) (HPC)
  T/C: 90 % of control
dose: 400.0 mg/kg/injection, schedule: Q04DX003 (ip), vehicle: Klucel (hydroxypropylcellulose) (HPC)
  T/C: 103 % of control
